From ChEMBL document CHEMBL1147963, “Design, synthesis, and antitumor activity of bile acid-polyamine-nucleoside conjugates” (Bioorg Med Chem Lett, 2007)

Tests used:
Assay type in all cases: functional, cell-based
786-0 = test: Cytotoxicity against human 7860 cells after 48 hrs by MTT assay
HeLa [1] = test: Cytotoxicity against human HeLa cells at 100 uM after 48 hrs by MTT assay
HeLa [2] = test: Cytotoxicity against human HeLa cells at 125 uM after 48 hrs by MTT assay

CCCCCCCCCCCCCCCCCCOP(=O)(NCCNCCNC(=O)CCC(C)[C@H]1CC[C@H]2[C@@H]3[C@H](O)C[C@@H]4C[C@H](O)CC[C@]4(C)[C@H]3C[C@H](O)[C@]12C)OC[C@H]1O[C@@H](n2cc(C)c(=O)[nH]c2=O)C[C@@H]1N=[N+]=[N-] (stereo in doubt; 2a) was tested. Which IC50 (786-0; 786-0) did it give?
Its IC50 is 59 µM.

How did the IC50 (786-0; Homo sapiens, 786-0, 48 h) turn out when Cc1cn([C@H]2C[C@H](N=[N+]=[N-])[C@@H](COP(=O)(NCCCNCCCNC(=O)CCC(C)[C@H]3CC[C@H]4[C@@H]5CC[C@@H]6C[C@H](O)CC[C@]6(C)[C@H]5C[C@H](O)[C@]34C)OC[C@H]3O[C@@H](n4cc(C)c(=O)[nH]c4=O)C[C@@H]3N=[N+]=[N-])O2)c(=O)[nH]c1=O (stereo not given in full) was run?
Its IC50 is > 100 µM.

What about the IC50 (HeLa [1]) of the same molecule?
Its IC50 is > 100 µM.

Which results are given for CCCCCCCCCCCCCCCCCCO[PH](=O)OC[C@H]1O[C@@H](n2cc(C)c(=O)[nH]c2=O)C[C@@H]1N=[N+]=[N-] (stereo not given in full)?
IC50 (786-0; Homo sapiens, 786-0, 48 h): 86 µM; IC50 (HeLa [1]): > 100 µM

Which results are given for Cc1cn([C@H]2C[C@H](N=[N+]=[N-])[C@@H](COP(=O)(NCCCNCCCNC(=O)CCC(C)[C@H]3CC[C@H]4[C@@H]5C(=O)C[C@@H]6CC(=O)CC[C@]6(C)[C@H]5CC(=O)[C@]34C)OC[C@H]3O[C@@H](n4cc(C)c(=O)[nH]c4=O)C[C@@H]3N=[N+]=[N-])O2)c(=O)[nH]c1=O (stereo not given in full)?
IC50 (786-0; Homo sapiens, 786-0, 48 h): > 100 µM; IC50 (HeLa [1]): > 100 µM

With CCCCCCCCCCCCCCCCCCOP(=O)(NCCCNCCCNC(=O)CCC(C)[C@H]1CC[C@H]2[C@@H]3CC[C@@H]4C[C@H](O)CC[C@]4(C)[C@H]3C[C@H](O)[C@]12C)OC[C@H]1O[C@@H](n2cc(C)c(=O)[nH]c2=O)C[C@@H]1N=[N+]=[N-] (stereo not given in full) as the molecule, how does the IC50 (786-0; Homo sapiens, 786-0, 48 h) read?
Its IC50 is 6.8 µM.

And the IC50 (HeLa [1])?
The IC50 was 89 µM.

What does the source list for Cc1cn([C@H]2C[C@H](N=[N+]=[N-])[C@@H](COP(=O)(NCCNCCNC(=O)CCC(C)[C@H]3CC[C@H]4[C@@H]5CC[C@@H]6C[C@H](O)CC[C@]6(C)[C@H]5C[C@H](O)[C@]34C)OC[C@H]3O[C@@H](n4cc(C)c(=O)[nH]c4=O)C[C@@H]3N=[N+]=[N-])O2)c(=O)[nH]c1=O (stereo not given in full)?
IC50 (786-0; Homo sapiens, 786-0, 48 h): > 100 µM; IC50 (HeLa [1]): > 100 µM

Which results are given for Cc1cn([C@H]2C[C@H](N=[N+]=[N-])[C@@H](COP(=O)(NCCNCCNC(=O)CCC(C)[C@H]3CC[C@H]4[C@@H]5[C@H](O)C[C@@H]6C[C@H](O)CC[C@]6(C)[C@H]5C[C@H](O)[C@]34C)OC[C@H]3O[C@@H](n4cc(C)c(=O)[nH]c4=O)C[C@@H]3N=[N+]=[N-])O2)c(=O)[nH]c1=O (stereo not given in full)?
IC50 (786-0; Homo sapiens, 786-0, 48 h): > 100 µM; IC50 (HeLa [1]): > 100 µM

Which IC50 (786-0; Homo sapiens, 786-0, 48 h) does the source give for CCCCCCCCCCCCCCCCCCOP(=O)(NCCNCCNC(=O)CCC(C)[C@H]1CC[C@H]2[C@@H]3CC[C@@H]4C[C@H](O)CC[C@]4(C)[C@H]3C[C@H](O)[C@]12C)OC[C@H]1O[C@@H](n2cc(C)c(=O)[nH]c2=O)C[C@@H]1N=[N+]=[N-] (stereo not given in full) here?
The IC50 was 58 µM.

And the IC50 (HeLa [1])?
The IC50 was > 100 µM.

Which IC50 (786-0; Homo sapiens, 786-0, 48 h) does the source give for CCCCCCCCCCCCCCCCCCOP(=O)(NCCNCCNC(=O)CCC(C)[C@H]1CC[C@H]2[C@@H]3C(=O)C[C@@H]4CC(=O)CC[C@]4(C)[C@H]3CC(=O)[C@]12C)OC[C@H]1O[C@@H](n2cc(C)c(=O)[nH]c2=O)C[C@@H]1N=[N+]=[N-] (stereo not given in full) here?
Its IC50 is 42 µM.

What about the IC50 (HeLa [1]) of the same molecule?
Its IC50 is > 100 µM.

How did the IC50 (786-0; Homo sapiens, 786-0, 48 h) turn out when CCCCCCCCCCCCCCCCCCOP(=O)(NCCCNCCCNC(=O)CCC(C)[C@H]1CC[C@H]2[C@@H]3C(=O)C[C@@H]4CC(=O)CC[C@]4(C)[C@H]3CC(=O)[C@]12C)OC[C@H]1O[C@@H](n2cc(C)c(=O)[nH]c2=O)C[C@@H]1N=[N+]=[N-] (stereo not given in full) was run?
Its IC50 is 7.1 µM.

And the IC50 (HeLa [1])?
The IC50 was 91 µM.

Which IC50 (786-0; Homo sapiens, 786-0, 48 h) does the source give for Cc1cn([C@H]2C[C@H](N=[N+]=[N-])[C@@H](COP(=O)(NCCNCCNC(=O)CCC(C)[C@H]3CC[C@H]4[C@@H]5C(=O)C[C@@H]6CC(=O)CC[C@]6(C)[C@H]5CC(=O)[C@]34C)OC[C@H]3O[C@@H](n4cc(C)c(=O)[nH]c4=O)C[C@@H]3N=[N+]=[N-])O2)c(=O)[nH]c1=O (stereo not given in full) here?
Its IC50 is > 100 µM.

What about the IC50 (HeLa [1]) of the same molecule?
Its IC50 is > 100 µM.

CCCCCCCCCCCCCCCCCCOP(=O)(NCCCNCCCNC(=O)CCC(C)[C@H]1CC[C@H]2[C@@H]3[C@H](O)C[C@@H]4C[C@H](O)CC[C@]4(C)[C@H]3C[C@H](O)[C@]12C)OC[C@H]1O[C@@H](n2cc(C)c(=O)[nH]c2=O)C[C@@H]1N=[N+]=[N-] (stereo not given in full) was tested. Which IC50 (786-0; Homo sapiens, 786-0, 48 h) did it give?
The IC50 was 7.2 µM.

What about the IC50 (HeLa [1]) of the same molecule?
The IC50 was 94 µM.

With Cc1cn([C@H]2C[C@H](N=[N+]=[N-])[C@@H](CO)O2)c(=O)[nH]c1=O [ZIDOVUDINE] as the molecule, how does the IC50 (HeLa [2]) read?
The IC50 was > 100 µM.

And the IC50 (HeLa [1])?
Its IC50 is > 100 µM.
